These results are taken from patent EP1172442A1, “VITAMIN D DERIVATIVES AND PROCESS FOR PRODUCING THE SAME” (MERCIAN CORPORATION, priority 1999, dated 2000).

Assay [1] deals with VDR (chicken small intestine receptor). Kind of assay: Binding ability to vitamin D receptor (VDR), radio receptor assay (RRA), competition with 3H-1,25(OH)2D3. The conditions noted are these: relative value of B/B0 50% value, 1,25(OH)2D3 taken to be 100; 4°C for 3 hours. The procedure:
Binding ability to VDR was examined by the following radio receptor assay (RRA) method.
1,25(OH)2D3 and each specimen were serially diluted at from 10^-11 M to 10^-6 M. 20µL of a [26,27-^3H]-1,25-dihydroxyvitamin D3 (^3H-1,25(OH)2D3) solution and 60 µL of 1,25(OH)2D3 or each specimen solution were added in a small test tube, and 0.5 mL of a VDR (chicken small intestine receptor) solution was added and mixed, and then allowed to stand at 4°C for 3 hours. Then, after 0.125 mL of a dextran-active carbon suspension was added and mixed, the mixture was allowed to stand on ice for 30 minutes, ^3H-1,25(OH)2D3 unbound to VDR was removed by centrifugation at 3000 rpm for 15 minutes, and then the quantity of ^3H-1,25 (OH)2D3 bound to VDR was measured using 0.5 mL of the supernatant.
The binding ability to VDR of each specimen was evaluated by calculating and comparing the B/B0 50% value. […] The VDR binding ability was shown in Table 1 as a relative value of each specimen when B/B0 50% value of 1,25(OH)2D3 is taken to be 100.

Assay [2] has as its system DBP (rat serum diluted with a barbital acetate buffer). The assay can be described thus: Binding ability to vitamin D-bound protein (DBP), competitive protein binding assay (CPBA), competition with 3H-25(OH)D3. The conditions noted are these: relative value of B/B0 50% value, 1,25(OH)2D3 taken to be 100; 4°C for 1 hour. The method, then:
The binding ability to DBP was evaluated using the following competitive protein binding assay (CPBA). 1,25(OH)2D3 and each specimen were diluted to concentrations from 10^-11 M to 10^-5 M. 50 µL of a [26,27-^3H]-25-hydroxyvitamin D3 (^3H-25(OH)D3) solution and 100 µL of 1,25(OH)2D3 or each specimen solution were placed in a small test tube, and 1 mL of a DBP (rat serum diluted with a barbital acetate buffer) solution was added and mixed, and then allowed to stand at 4°C for 1 hour. Then, after 0.5 mL of a dextran-active carbon suspension was added and mixed, the mixture was allowed to stand on ice for 10 minutes, ^3H-25(OH)D3 unbound to DBP was removed by centrifugation at 3000 rpm for 15 minutes, and then the quantity of ^3H-25(OH)D3 bound to DBP was measured using 1 mL of the supernatant.
The binding ability to DBP of each specimen was evaluated by calculating and comparing the B/B0 50% value.

With `CC(CO)CCC[C@@H](C)[C@H]1CC[C@H]2/C(=C/C=C3/C[C@@H](O)C[C@H](O)/C3=C\F)CCC[C@]12C` (stereo partly drawn) [Example 4(3), 19-fluoro-1α,26-dihydroxyvitamin D3], the “Binding ability to VDR” value in assay [1] is listed as 29.129. Also, the “Binding ability to DBP” value in assay [2] is 35.257.

For the compound `C=C1/C(=C\C=C2/CCC[C@]3(C)[C@@H]([C@H](C)CCCC(C)CO)CC[C@@H]23)C[C@@H](O)C[C@@H]1O` (stereo partly drawn) [Example 2, 1α,26-dihydroxyvitamin D3], the “Binding ability to VDR” value in assay [1] was 107.557. In assay [2], the “Binding ability to DBP” value is 168.529.

Consider `CC(C)C(O)CC[C@@H](C)[C@H]1CC[C@H]2/C(=C/C=C3/C[C@@H](O)C[C@H](O)/C3=C\F)CCC[C@]12C` (stereo partly drawn) [Example 4(1), 19-fluoro-1α,24-dihydroxyvitamin D3], for which the “Binding ability to VDR” value in assay [1] came to 72.878. Further, in assay [2], the “Binding ability to DBP” value is 23.665.

In the case of `C=C1C[C@@H](O)[C@H](O)C/C1=C/C=C1\CCC[C@]2(C)[C@@H]([C@H](C)CCCC(C)(C)O)CC[C@@H]12` [Example 1(1), 2α,25-dihydroxyvitamin D3], the “Binding ability to VDR” value in assay [1] was found to be 32.480. In addition, in assay [2], the “Binding ability to DBP” value stood at 11433.718.

In the case of `C[C@H](CCCC(C)(C)O)[C@H]1CC[C@H]2/C(=C/C=C3/C[C@@H](O)C[C@H](O)/C3=C\F)CCC[C@]12C` [Example 4(2), 19-fluoro-1α,25-dihydroxyvitamin D3], the “Binding ability to VDR” value in assay [1] is on record as 62.386. Further, in assay [2], the “Binding ability to DBP” value is listed as 35.792.

Turning to `C=C1/C(=C\C=C2/CCC[C@]3(C)[C@@H]([C@H](C)CCCC(C)(C)O)CC[C@@H]23)C(F)(F)[C@@H](O)C[C@@H]1O` [Example 6(2), 4,4-difluoro-1α,25-dihydroxyvitamin D3], in assay [1], the “Binding ability to VDR” value came to 92.716. Further, in assay [2], the “Binding ability to DBP” value came out at 26.684.

Regarding `C=C1CC[C@H](O)C(F)(F)/C1=C/C=C1\CCC[C@]2(C)[C@@H]([C@H](C)CCCC(C)CO)CC[C@@H]12` (stereo partly shown) [Example 5(3), 4,4-Difluoro-26-hydroxyvitamin D3], the “Binding ability to VDR” value in assay [1] is listed as 34.067. Besides, the “Binding ability to DBP” value in assay [2] was 28.106.

As for `C=C1CC[C@H](O)C(F)(F)/C1=C/C=C1\CCC[C@]2(C)[C@@H]([C@H](C)CCC(O)C(C)C)CC[C@@H]12` (stereo partly shown) [Example 5(1), 4,4-difluoro-24-hydroxyvitamin D3], in assay [1], the “Binding ability to VDR” value is recorded as 81.860. Also, the “Binding ability to DBP” value in assay [2] is 16.633.
